# From BindingDB's records for doi:10.1021/jm960092w (Agouron Pharmaceuticals, 1996)
# Biological target: T1, Dimer of Gag-Pol polyprotein [489-587] (Human immunodeficiency virus 1, UniProt P12497)
# T1 construct: 489-587
# Assay: Protease Inhibition Assay
# Conditions: pH 5.6; 37 °C
# Method: Protease activity was measured by continuous chromogenic assay. The chromogenic peptide His-Lys-Ala-Arg-Val-Leu-(p-NO2-Phe)-Glu-Ala-Nleu-Ser was used as a substrate. Reactions were followed by the decrease of absorbance at 300 nm measured by spectrophotometer. Experimental results were analyzed by the nonlinear regression analysis, using a mathematical model for tight binding inhibitors.
smiles,measurement,value
"CC(C)(C)NC(=O)c1ccccc1C[C@@H](O)[C@H](Cc1ccccc1)NC(=O)[C@H](CC(N)=O)NC(=O)c1ccc2ccccc2n1 [(2S)-N-[(2S,3R)-4-[2-(tert-butylcarbamoyl)phenyl]-3-hydroxy-1-phenylbutan-2-yl]-2-(quinolin-2-ylformamido)butanediamide]",Ki,2 nM
